Legend:
human NSCLC cell lines = assay: PRISM drug response (IC50/EC50) in CCLE NSCLC cell lines; format: cell-based; conditions: average across CCLE human NSCLC cell lines, PRISM data
Excerpt: Drug Response. The PRISM (Profiling Relative Inhibition Simultaneously in Mixtures) framework [Corsello, S. M., et al., Discovering the anti-cancer potential of non-oncology drugs by systematic viability profiling. […] 235-248] is a computational tool that estimates drug sensitivities of cancer cell lines using molecular profiling data, particularly gene expression data from the CCLE database. It was obtained the PRISM repurposing dataset of the secondary screen from DepMap release PRISM Repur-posing 19Q4 (https://depmap.org/portal/download/all/, accessed on 25 Jan. 2023). For this study, the PRISM drug response data was used from 94 NSCLC cell lines for 1,448 compounds to investigate the drug sensitivity of specific genes.

HCC1806 = assay: Drug sensitivity categorisation of breast cancer cell line HCC1806; format: cell-based, human; conditions: TNBC cell line HCC1806; categorised from IC50, ln(IC50), EC50, ln(EC50)
Excerpt: (§1) Drug Sensitivity Data of Breast Cancer Cell Lines The drug sensitivity data of breast cancer cell lines were obtained from two distinct sources. The first source was the Profiling Relative Inhibition Simultaneously in Mixtures (PRISM) [Corsello, S. M.; Nagari, R. T.; Spangler, R. D.; Rossen, J.; Kocak, M.; Bryan, J. G.; Humeidi, R.; Peck, D.; Wu, X.; Tang, A. A.; et al. Discovering the anti-cancer potential of non-oncology drugs by systematic viability profiling. Nature cancer 2020, 1, 235-248, doi:10.1038/s43018-019-0018-6] secondary screen data, which was provided in the DepMap 19Q4 data release (https://depmap.org/portal, accessed on 23 May 2023). The second source encompassed the Genomics of Drug Sensitivity in Cancer (GDSC1 and GDSC2) datasets [Yang, W.; Soares, J.; Greninger, P.; Edelman, E. J.; Lightfoot, H.; Forbes, S.; Bindal, N.; Beare, D.; Smith, J. A.; Thompson, I. R.; et al. Genomics of Drug Sensitivity in Cancer (GDSC): a resource for therapeutic biomarker discovery in cancer cells. Nucleic acids research 2013, 41, D955-961, doi:10.1093/nar/gksllll, Iorio, F.; Knijnenburg, T. A.; Vis, D. J.; Bignell, G. R.; Menden, M. P.; Schubert, M.; Aben, N.; Goncalves, E.; Barthorpe, S.; Lightfoot, H.; et al. A Landscape of Pharmacogenomic Interactions in Cancer. Cell 2016, 166, 740-754, doi:10.1016/j.cell.2016.06.017, Garnett, M. J.; Edelman, E. J.; Heidorn, S. J.; Greenman, C. D.; Dastur, A.; Lau, K. W.; Greninger, P.; Thompson, I. R.; Luo, X.; Soares, J.; et al. Systematic identification of genomic markers of drug sensitivity in cancer cells. Nature 2012, 483, 570-575, doi:10.1038/nature11005], which were made available through CancerRxGene (https://www.cancerrxgene.org/, accessed on 25 May 2023). In this study, we examined drug sensitivity using various measurements, including IC50, ln(IC50), EC50, and ln(EC50). Further details regarding the categorization of drug sensitivity and resistance can be found in our previous work [Ye, Q.; Mohamed, R.; Dukhlallah, D.; Gencheva, M.; Hu, G.; Pearce, M. C.; Kolluri, S. K.; Marsh, C. B.; Eubank, T. D.; Ivanov, A. V.; et al. Molecular Analysis of ZNF71 KRAB in Non-Small-Cell Lung Cancer. International journal of molecular sciences 2021, 22, doi:10.3390/ijms22073752, Ye, Q.; Singh, S.; Qian, P. R.; Guo, N. L. Immune-Omics Networks of CD27, PD1, and PDL1 in Non-Small Cell Lung Cancer. Cancers (Basel) 2021, 13, doi:10.3390/cancers13174296].
(§2) For drug sensitivity analysis, we classified the breast cancer cell lines as sensitive or resistant to each drug based on the measurements of IC50, ln(IC50), EC50, and ln(EC50), following the classification method described in our previous publications. Both mRNA and protein expression levels were considered in determining the association with drug sensitivity.

HCC1937 = assay: Drug sensitivity (PRISM) of breast cancer cell line HCC1937; format: cell-based, human; conditions: TNBC cell line HCC1937; categorised from IC50, ln(IC50), EC50, ln(EC50)
Excerpt: as §1, §2
(§3) Drug Sensitivity in CCLE. This study used drug sensitivity data of human breast cancer cell lines from various sources. The DepMap portal provided the secondary Profiling Relative Inhibition Simultaneously in Mixtures (PRISM) [Corsello, S. M.; Nagari, R. T.; Spangler, R. D.; Rossen, J.; Kocak, M.; Bryan, J. G.; Humeidi, R.; Peck, D.; Wu, X.; Tang, A. A.; et al. Discovering the anti-cancer potential of non-oncology drugs by systematic viability profiling. Nat. Cancer 2020, 1, 235-248. https://doi.org/10.1038/s43018-019-0018-6] repurposing dataset (PRISM repurposing 19Q4, accessed on 3 Apr. 2023), which includes screening results of 1447 compounds in 22 human breast cancer cell lines. Additionally, we downloaded the Genomics of Drug Sensitivity in Cancer (GDSC1 and GDSC2) datasets [Yang, W.; Soares, J.; Greninger, P.; Edelman, E. J.; Lightfoot, H.; Forbes, S.; Bindal, N.; Beare, D.; Smith, J. A.; Thompson, I. R.; et al. Genomics of Drug Sensitivity in Cancer (GDSC): A resource for therapeutic biomarker discovery in cancer cells. […]

HCC1143 = assay: Drug sensitivity categorisation of breast cancer cell line HCC1143; format: cell-based, human; conditions: TNBC cell line HCC1143; categorised from IC50, ln(IC50), EC50, ln(EC50)
Excerpt: as §1, §2

HCC38 = assay: Drug sensitivity (PRISM) of breast cancer cell line HCC38; format: cell-based, human; conditions: TNBC cell line HCC38; categorised from IC50, ln(IC50), EC50, ln(EC50)
Excerpt: as §1, §2, §3

[1] = Phase II clinical studies; cited from earlier work
[2] = Phase I clinical trials; cited from earlier work
MCF7 cells = assay: Drug sensitivity categorisation of breast cancer cell line MCF7; format: cell-based, human; conditions: Luminal A MCF7 cells; categorised from IC50, ln(IC50), EC50, ln(EC50)
Excerpt: as §1, §2

T47D breast cancer cells = conditions: cited from earlier work
advanced solid tumors = conditions: Phase I, cited from earlier work
[3] = patients with advanced solid tumors

Row | SMILES | cell line sensitive or resistant to drug (HCC1806) | cell line sensitive or resistant to drug (HCC1937) | cell line sensitive or resistant to drug (HCC1143) | cell line sensitive or resistant to drug (HCC38) | cell line sensitive or resistant to drug (MCF7 cells) | further results
1 | COc1cccc2c1C(=O)c1c(O)c3c(c(O)c1C2=O)C[C@@](O)(C(C)=O)C[C@@H]3O[C@H]1C[C@H](N)[C@H](O)[C@H](C)O1 [daunorubicin] |  |  |  |  |  | averaged IC50 and EC50 (human NSCLC cell lines): low
2 | Cc1cn(-c2cc(NC(=O)c3ccc(C)c(Nc4nccc(-c5cccnc5)n4)c3)cc(C(F)(F)F)c2)cn1 [nilotinib] | sensitive | resistant | resistant | resistant |  | 
3 | C[C@@H](N)[C@H]1CC[C@H](C(=O)Nc2ccncc2)CC1 [Y-27632] | sensitive |  | sensitive | sensitive |  | 
4 | O=C(NOCC1CC1)c1ccc(F)c(F)c1Nc1ccc(I)cc1Cl [PD184352] |  |  | sensitive | resistant | sensitive | efficacy [1]: insufficient efficacy; tolerability [2]: well tolerated
5 | Cc1cc(I)ccc1Nc1c(C(=O)NOCC2CC2)cc(F)c(F)c1F [PD198306] | sensitive | resistant | sensitive | resistant | sensitive | ERK phosphorylation response to MEK inhibition (T47D breast cancer cells): resistance
6 | C(#CCN1CCCC1)CN1CCCC1 [tremorine] | sensitive | sensitive | sensitive | sensitive |  | 
7 | OCc1ccc(-c2ccc(-c3ccc(CO)s3)o2)s1 [RITA] | sensitive | sensitive | sensitive | sensitive | sensitive | 
8 | O=C(NC[C@H](O)CO)c1ccncc1Nc1ccc(I)cc1F [AS703026] | resistant | resistant |  |  |  | 
9 | Cc1cnc(Nc2ccc(OCCN3CCCC3)cc2)nc1Nc1cccc(S(=O)(=O)NC(C)(C)C)c1 [TG101348] | sensitive | sensitive |  |  | sensitive | 
10 | c1ccc2c(CCNc3ccc(Nc4ccncc4)cc3)c[nH]c2c1 [serdemetan] |  |  | sensitive | sensitive |  | tumor response (advanced solid tumors; a breast cancer patient): partial response; QTc liability (advanced solid tumors; [3]): exposure-related QTc liability; tolerability (advanced solid tumors; [3]): well tolerated
11 | N#C/C(=C(/N)Sc1ccc(N)cc1)c1ccccc1C(F)(F)F [BRD-K12244279] |  |  |  |  | resistant | 
12 | CNC(=O)c1cc(Oc2ccc(NC(=O)Nc3ccc(Cl)c(C(F)(F)F)c3)cc2)ccn1 [sorafenib] | sensitive |  |  | sensitive |  | 
13 | O=C(NOC[C@H](O)CO)c1ccc(F)c(F)c1Nc1ccc(I)cc1F [PD0325901] | sensitive | resistant | sensitive | resistant | resistant | 
14 | O=C(Nc1cccc(Nc2ncc(Br)c(NCCc3cnc[nH]3)n2)c1)N1CCCC1 [BX-912] |  |  |  |  |  | averaged IC50 and EC50 (human NSCLC cell lines): low
15 | CC[C@@H]1C(=O)OC[C@@H]1Cc1cncn1C [pilocarpine] | sensitive | sensitive | sensitive | sensitive |  | 
16 | N#CC(=C(/N)Sc1ccccc1N)/C(C#N)=C(\N)Sc1ccccc1N [U0126] |  |  |  |  | sensitive | ERK phosphorylation response to MEK inhibition (T47D breast cancer cells): resistance
17 | COc1cccc(-c2cc(=O)c3ccccc3o2)c1N [PD98059] | sensitive | resistant |  | sensitive | sensitive | ERK phosphorylation response to MEK inhibition (T47D breast cancer cells): resistance

From patent US20240336977A1, “MICRORNA-REGULATED BIOMARKERS AND DRUG TARGETS FOR IMPROVING DIAGNOSIS AND TREATMENT OF LUNG OR BREAST CANCER” (West Virginia University Board of Governors on behalf of …, priority 2023, published 2024)
